Assay results: article PMC10895676, “Antiviral Activity of Lipophilic Nucleoside Tetraphosphate Compounds” (Journal of Medicinal Chemistry, 2024)
Entries after “also recorded” stand apart in the source; their conditions may differ.

Target: T1, human DNA polymerase α (Homo sapiens, UniProt P09884)
T1 construct: purchased Chimerx
T1 sequence (P09884 1-1462): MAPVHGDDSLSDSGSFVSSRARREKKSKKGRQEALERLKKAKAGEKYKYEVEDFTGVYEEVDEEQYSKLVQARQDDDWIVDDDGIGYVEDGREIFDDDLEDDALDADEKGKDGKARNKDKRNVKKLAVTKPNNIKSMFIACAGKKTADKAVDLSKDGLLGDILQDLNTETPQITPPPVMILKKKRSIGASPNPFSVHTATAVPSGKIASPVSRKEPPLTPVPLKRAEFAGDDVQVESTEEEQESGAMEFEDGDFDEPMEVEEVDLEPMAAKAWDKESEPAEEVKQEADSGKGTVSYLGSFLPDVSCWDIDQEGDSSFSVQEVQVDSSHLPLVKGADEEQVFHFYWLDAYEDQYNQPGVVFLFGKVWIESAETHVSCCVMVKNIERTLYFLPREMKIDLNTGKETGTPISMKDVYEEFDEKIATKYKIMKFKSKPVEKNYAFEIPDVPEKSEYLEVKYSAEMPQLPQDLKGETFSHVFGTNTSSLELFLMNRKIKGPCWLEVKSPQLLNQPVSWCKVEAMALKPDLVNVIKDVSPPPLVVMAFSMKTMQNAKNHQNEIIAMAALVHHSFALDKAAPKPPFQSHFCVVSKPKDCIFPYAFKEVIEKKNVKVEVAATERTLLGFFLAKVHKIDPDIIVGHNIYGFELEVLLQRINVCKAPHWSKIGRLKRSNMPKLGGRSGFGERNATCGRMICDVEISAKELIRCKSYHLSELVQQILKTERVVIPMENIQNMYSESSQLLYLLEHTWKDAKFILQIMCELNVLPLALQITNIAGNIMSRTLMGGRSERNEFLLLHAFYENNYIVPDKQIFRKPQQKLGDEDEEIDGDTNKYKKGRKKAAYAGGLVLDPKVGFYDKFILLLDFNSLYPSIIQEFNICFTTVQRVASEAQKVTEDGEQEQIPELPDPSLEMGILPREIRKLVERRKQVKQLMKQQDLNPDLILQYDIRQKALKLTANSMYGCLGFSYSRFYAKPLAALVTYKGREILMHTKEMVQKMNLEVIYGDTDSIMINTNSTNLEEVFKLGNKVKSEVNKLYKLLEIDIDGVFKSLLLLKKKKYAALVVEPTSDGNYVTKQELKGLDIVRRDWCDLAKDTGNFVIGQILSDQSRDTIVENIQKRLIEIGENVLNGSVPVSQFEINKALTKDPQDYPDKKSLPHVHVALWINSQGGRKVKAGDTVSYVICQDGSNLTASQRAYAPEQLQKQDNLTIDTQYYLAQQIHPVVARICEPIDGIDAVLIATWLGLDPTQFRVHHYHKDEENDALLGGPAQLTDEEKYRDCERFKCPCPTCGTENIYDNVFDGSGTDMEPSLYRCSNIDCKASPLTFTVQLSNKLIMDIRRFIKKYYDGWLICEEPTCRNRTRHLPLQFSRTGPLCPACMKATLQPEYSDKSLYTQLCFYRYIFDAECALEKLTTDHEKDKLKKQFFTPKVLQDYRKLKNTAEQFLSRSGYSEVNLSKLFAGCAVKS
Experiment: Primer extension assay using human DNA polymerase α
Format: biochemical
Conditions: 60 min, 2 U, 37 °C
Source text: Encouraged by the previously obtained results that γ-phosphate-modified-d4TDPs 3, γ-monoalkylated d4TTP derivatives as well as d4TDP were accepted as substrates by HIV-RT,[49],[50],[55],[59]−[61] δ-dialkylated d4T tetraphosphate analogues 4,5, δ-monoalkylated d4T tetraphosphate analogues 20 and 24 and d4T4P were investigated in primer extension assays in the presence of HIV-RT or the three different human DNA polymerases α, β and γ. D4TTP (for the compounds 4–9) and the natural thymidine triphosphate (TTP) were used as reference compounds.
Figure 6 Primer extension assay using HIV-RT (A), human polymerases α (B), β (C), and γ (D). (Figure 6A). Primer extension assay using HIV-RT (30 min, 6U). Lane 1: (+) dATP, dCTP, dGTP, and TTP with HIV-RT. Lane 2: (−) dATP, dCTP, dGTP, and TTP without HIV-RT. Lane 3: TTP. […] Lane 5: δ-(C4; C18)-d4T4P 4d. […] Lane 7: δ-(C18)-d4T4P 20. Lane 8: δ-C-(C18)-d4T4P 24. Lane 9: d4T4P. Lane 10: d4TTP. Lane 11: d4TDP. HIV-RT assay reaction conditions: 50 mM Tris–HCl (pH 8.6), 10 mM MgCl2, 40 mM KCl, 250 μM dNTPs, HIV-RT (6 U), 0.20 μM DNA hybrid, primer-template-hybrid 0.32 mM in a reaction volume of 10 μL, incubated at 37 °C for 0.5 h, 80 °C for 7 min. Primer extension assays: 50 mA, 45 w for 4 h. (Figure 6B). For human DNA polymerase α assay (60 min, 2 U): Lane 1: (+) dATP, dCTP, dGTP, and TTP with human polymerase α. Lane 2: (−) dATP, dCTP, dGTP, and TTP without human polymerase α. Lane 3: TTP. […] Lane 5: δ-(C4; C18)-d4T4P 4d. […] Lane 7: δ-(C18)-d4T4P 20. Lane 8: δ-C-(C18)-d4T4P 24. Lane 9: d4T4P. Lane 10: d4TTP. Human DNA polymerase α assay conditions: 60 mM Tris–HCl (pH 8), 5 mM Mg(OAc)2, 100 mM KCl, 1.0 mM dithiothreitol, 0.1 mM spermine, 0.01% (w/v) bovine serum albumin, 250 μM dNTPs, 2 U human polymerase α, 0.20 μM DNA hybrid, and primer-template-hybrid 0.32 mM in a reaction volume of 10 μL, incubated at 37 °C for 1 h, 80 °C for 7 min. Primer extension assays: 50 mA, 45 w for 3 h. (Figure 6C). For human DNA polymerase β assay (60 min, 2 U): Lane 1: (+) dATP, dCTP, dGTP, and TTP with human polymerase β. […]

Row | Structure (SMILES) | substrate for human DNA polymerase α (primer extension)
1 | CCCCCCCCCCCCCCCCCCOP(=O)(O)OP(=O)(O)OP(=O)(O)OP(=O)(O)OC[C@@H]1C=C[C@H](n2cc(C)c(=O)[nH]c2=O)O1 [compound 20, δ-(Alkyl-C18)-d4T4P] | nonsubstrates
2 | CCCCCCCCCCCCCCCCCCP(=O)(O)OP(=O)(O)OP(=O)(O)OP(=O)(O)OC[C@@H]1C=C[C@H](n2cc(C)c(=O)[nH]c2=O)O1 [compound 24, δ-C-(Alkyl-C18)-d4T4P] | nonsubstrates
3 | Cc1cn([C@H]2C=C[C@@H](COP(=O)(O)OP(=O)(O)OP(=O)(O)OP(=O)(O)O)O2)c(=O)[nH]c1=O [d4T4P, 2′,3′-didehydro-2′,3′-dideoxythymidine-5′-tetraphosphate] | nonsubstrates; also recorded: not a substrate
